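Values below derive from 48-hour exposures of cells grown in 96-well plates, with endpoints linearly interpolated between the two concentrations bracketing the appropriate inhibition level. At the TGI there is no net growth.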
Columns and labels:
Assay in all cases: NCI tumour cell line growth inhibition, 48 h
EKVX NSCLC = system: EKVX NSCLC
SNB-78 CNS = system: SNB-78 CNS
SNB-19 CNS = system: SNB-19 CNS
IGROV1 ovarian = system: IGROV1 ovarian
NCI-H23 lung = system: NCI-H23 lung
MALME-3M melanoma = system: MALME-3M melanoma
U251 CNS = system: U251 CNS
SK-MEL-2 melanoma = system: SK-MEL-2 melanoma
ACHN renal = system: ACHN renal
SN12C renal = system: SN12C renal
NCI-H226 lung = system: NCI-H226 lung
OVCAR-4 ovarian = system: OVCAR-4 ovarian
SW-620 colon = system: SW-620 colon
K-562 leukemia = system: K-562 leukemia
DLD-1 colon = system: DLD-1 colon
KM12 colon = system: KM12 colon
HCT-116 colon = system: HCT-116 colon
HOP-92 NSCLC = system: HOP-92 NSCLC
RXF-631 renal = system: RXF-631 renal
UACC-257 melanoma = system: UACC-257 melanoma
M19-MEL melanoma = system: M19-MEL melanoma
A549 NSCLC = system: A549 NSCLC
XF 498 CNS = system: XF 498 CNS
LXFL 529 NSCLC = system: LXFL 529 NSCLC
HCC-2998 colon = system: HCC-2998 colon
RPMI-8226 leukemia = system: RPMI-8226 leukemia
RXF 393 renal = system: RXF 393 renal
SF-539 CNS = system: SF-539 CNS
SF-268 CNS = system: SF-268 CNS
OVCAR-8 ovarian = system: OVCAR-8 ovarian
HT29 colon = system: HT29 colon
DMS 114 small cell lung = system: DMS 114 small cell lung
MOLT-4 leukemia = system: MOLT-4 leukemia
SK-MEL-28 melanoma = system: SK-MEL-28 melanoma
M14 melanoma = system: M14 melanoma
TK-10 renal = system: TK-10 renal
SF-295 CNS = system: SF-295 CNS
CAKI-1 renal = system: CAKI-1 renal
UACC-62 melanoma = system: UACC-62 melanoma
786-0 renal = system: 786-0 renal
UO-31 renal = system: UO-31 renal
HOP-18 NSCLC = system: HOP-18 NSCLC
SK-MEL-5 melanoma = system: SK-MEL-5 melanoma
HCT-15 colon = system: HCT-15 colon
HOP-62 NSCLC = system: HOP-62 NSCLC
HL-60(TB) leukemia = system: HL-60(TB) leukemia
NCI-H522 lung = system: NCI-H522 lung
NCI-H460 lung = system: NCI-H460 lung
SR leukemia = system: SR leukemia
OVCAR-3 ovarian = system: OVCAR-3 ovarian
LOX IMVI melanoma = system: LOX IMVI melanoma
CCRF-CEM leukemia = system: CCRF-CEM leukemia
OVCAR-5 ovarian = system: OVCAR-5 ovarian
SK-OV-3 ovarian = system: SK-OV-3 ovarian
A498 renal = system: A498 renal
DMS 273 small cell lung = system: DMS 273 small cell lung
KM20L2 colon = system: KM20L2 colon
SNB-75 CNS = system: SNB-75 CNS
COLO 205 colon = system: COLO 205 colon

Measured: TGI

COC(=O)C1=C(c2ccc(Cl)cc2)C(O)N=C(NN)N1 (stereo not given)
not listed: A498 renal | DMS 273 small cell lung | KM20L2 colon | SNB-75 CNS | COLO 205 colon
> 100 µM: all other assays above

COC1(Cc2ccccc2)C(=O)c2ccccc2N1C(C)=O (stereo not given)
not listed: MALME-3M melanoma | NCI-H226 lung | SF-268 CNS | TK-10 renal | SK-MEL-5 melanoma | NCI-H522 lung | LOX IMVI melanoma | OVCAR-5 ovarian
> 100 µM: all other assays above

— PubChem BioAssay (NCI)
